Here are results for 7 compounds from US5703094A, “Quinolone- and naphthyridonecarboxylic acid derivatives” (Bayer Aktiengesellschaft, priority 1995, dated 1997).

In brackets after ≈: the same amount, converted by molar mass.

In one data set the test system is E. coli Neumann. Kind of data set: minimum inhibitory concentration, series dilution method on Iso-Sensitest agar. It counts as cell-based. The following applies: Escherichia coli, 37° C., about 20 hours. Here is the method:
(§1) Tables 9 and 10 show the minimum inhibitory concentrations (MIC values), as a measure of the antibacterial activity, and the ID50 values, as a measure of the interactions with mammalian DNA of a substance, both for compounds according to the invention and for reference compounds from the prior art (EP 520 240).
(§2) The minimum inhibitory concentrations (MIC) were determined by a series dilution method on Iso-Sensitest agar (Oxoid). For each test substance, a series of agar plates each comprising concentrations of the active compound decreasing by double dilution in each case was prepared. The agar plates were inoculated with a multipoint inoculator (Denley). Overnight cultures of the pathogens which had been diluted beforehand such that each inoculation point comprised about 10^4 colony-forming particles were used for the inoculation. The inoculated agar plates were incubated at 37° C. and the germ growth was read off after about 20 hours. The MIC value (μg/ml) indicates the lowest active compound concentration at which no growth was detectable with the naked eye.

A further data set relates to Ps. aeruginosa Walter. Described as above. The data set is classed as cell-based. The following applies: Pseudomonas aeruginosa, 37° C., about 20 hours. Here is the method:
as §1, §2

In the next data set the test system is Staph. aureus 133. Described as above. The data set is classed as cell-based. As to conditions: Staphylococcus aureus, 37° C., about 20 hours. The procedure: as §1, §2
The test system of another data set is Staph. aureus ICB 25701. The data set is described as above. The following applies: Staphylococcus aureus, ICB25701, 37° C., about 20 hours. The data set is classed as cell-based. The procedure:
as §1, §2

Data set [1] is described as follows: inhibition of DNA synthesis in CHO-KI cells (interactions with mammalian DNA), fluorophotometric. The data set is classed as cell-based, Chinese hamster. As to conditions: hamster, cho-k1 cells, measure of interactions with mammalian DNA, read-out: ID50 (concentration at which DNA synthesis is inhibited by 50%).
From the text: as §1
The ID50 is understood as meaning the concentration of a substance at which DNA synthesis in cells from ovaries of the Chinese hamster (CHO-KI) is inhibited by 50%. This value is determined after incubation of the corresponding substances in decreasing dilution stages over defined periods of time. For this, the DNA synthesis in CHO-KI cells is determined in comparison with controls by means of fluorophotometric methods.

In general, MIC refers to the smallest concentration in the dilution series that meets the test's criterion for growth inhibition. On to `N[C@@H]1CCC=C2CN(c3c(F)cc4c(=O)c(C(=O)O)cn(C5CC5)c4c3F)C[C@@H]21` (racemic) [Example 1, 7-[(3aRS,4RS)-4-amino-2,3,3a,4,5,6-hexahydro-1H-isoindol-2-yl]-1-cyclopropyl-6,8-difluoro-1,4-dihydro-4-oxo-3-quinolinecarboxylic acid], for which the MIC in the data set with E. coli Neumann was not above 0.015 µg/mL; with Ps. aeruginosa Walter it was 0.125 µg/mL (≈ 0.311 µM); in the data set with Staph. aureus 133, not above 0.015 µg/mL; in the data set with Staph. aureus ICB 25701, not above 0.015 µg/mL. Also, the IC50 in data set [1] was 4 µg/mL (≈ 9.96 µM).

Turning to `N[C@@H]1CCC=C2CN(c3cc4c(cc3F)c(=O)c(C(=O)O)cn4C3CC3)C[C@@H]21` (racemic) [Example 2, 7-[(3aRS,4RS)-4-amino-2,3,3a,4,5,6-hexahydro-1H-isoindol-2-yl]-1-cyclopropyl-6-fluoro-1,4-dihydro-4-oxo-3-quinolinecarboxylic acid], the MIC was not above 0.015 µg/mL against E. coli Neumann, 1 µg/mL (≈ 2.61 µM) in the data set with Ps. aeruginosa Walter, not above 0.015 µg/mL against Staph. aureus 133 and 0.125 µg/mL (≈ 0.326 µM) against Staph. aureus ICB 25701. The IC50 in data set [1] stood at 2 µg/mL (≈ 5.22 µM).

`N[C@@H]1CCC=C2CN(c3c(F)cc4c(=O)c(C(=O)O)cn(C5CC5)c4c3Cl)C[C@@H]21` (racemic) [Example 3, 7-[(3aRS,4RS)-4-amino-2,3,3a,4,5,6-hexahydro-1H-isoindol-2-yl]-8-chloro-1-cyclopropyl-6-fluoro-1,4-dihydro-4-oxo-3-quinolinecarboxylic acid]: the MIC in the data set on E. coli Neumann was not above 0.015 µg/mL; with Ps. aeruginosa Walter, 0.5 µg/mL (≈ 1.2 µM); in the data set with Staph. aureus 133 it was not above 0.015 µg/mL; against Staph. aureus ICB 25701, not above 0.015 µg/mL. Further, the IC50 in data set [1] was determined as 0.1 µg/mL (≈ 0.239 µM).

Turning to `N[C@@H]1CCC=C2CN(c3c(F)cc4c(=O)c(C(=O)O)cn([C@@H]5C[C@@H]5F)c4c3F)C[C@@H]21` (relative stereo) [Example 4, 7-[(3aRS,4RS)-4-amino-2,3,3a,4,5,6-hexahydro-1H-isoindol-2-yl]-6,8-difluoro-1-(cis-2-fluorocyclopropyl)-1,4-dihydro-4-oxo-3-quinolinecarboxylic acid], the minimal inhibitory concentration (MIC) was not above 0.015 µg/mL with E. coli Neumann, 0.25 µg/mL (≈ 0.596 µM) in the data set on Ps. aeruginosa Walter, not above 0.015 µg/mL with Staph. aureus 133 and 0.03 µg/mL (≈ 0.0715 µM) in the data set with Staph. aureus ICB 25701. For the same compound, in data set [1], the IC50 worked out at 2 µg/mL (≈ 4.77 µM).

As for `NC1C=CCC2CN(c3c(F)cc4c(=O)c(C(=O)O)cn(C5CC5)c4c3F)CC12` (centres unmarked) [Example 17 B, 7(4-amino-1,3,3a,4,7,7a-hexahydro-isoindol-2-yl)-1-cyclopropyl-6,8-difluoo-1,4-dihydro-4-oxo-3-quinolinecarboxylic acid, reference compound], the MIC in the data set with E. coli Neumann is not above 0.015 µg/mL; with Ps. aeruginosa Walter it was 0.25 µg/mL (≈ 0.623 µM); in the data set with Staph. aureus 133, not above 0.015 µg/mL; with Staph. aureus ICB 25701, 0.03 µg/mL (≈ 0.0747 µM). The IC50 in data set [1] was found to be 0.01 µg/mL (≈ 0.0249 µM).

`NC1C=CCC2CN(c3c(F)cc4c(=O)c(C(=O)O)cn(C5CC5)c4c3Cl)CC12` (centres unmarked) [Example 18 A, 7(4-amino-1,3,3a4,7,7a-hexahydro-isoindol-2-yl)-8-chloro-1-cyclopropyl-6-luoro-1,4-dihydro-4-oxo-3-quinolinecarboxylic acid, reference compound]: the MIC against E. coli Neumann is not above 0.015 µg/mL; against Ps. aeruginosa Walter, 0.25 µg/mL (≈ 0.598 µM); with Staph. aureus 133, not above 0.015 µg/mL; in the data set on Staph. aureus ICB 25701, not above 0.015 µg/mL. The IC50 in data set [1] worked out at 0.06 µg/mL (≈ 0.144 µM).

Take `NC1C=CCC2CN(c3cc4c(cc3F)c(=O)c(C(=O)O)cn4C3CC3)CC12` (centres unmarked) [Example 19, 7(4-amino-1,3,3a,4,7,7a-hexahydro-isoindol-2-yl)-1-cyclopropyl-6-fluoro-14-dihydro-4-oxo-3-quinolinecarboxylic acid, reference compound]: the MIC against E. coli Neumann was not above 0.015 µg/mL; in the data set with Ps. aeruginosa Walter it was 1 µg/mL (≈ 2.61 µM); against Staph. aureus 133, not above 0.015 µg/mL; in the data set with Staph. aureus ICB 25701, 1 µg/mL (≈ 2.61 µM). In addition, the IC50 in data set [1] came to 1 µg/mL (≈ 2.61 µM).
